Source: patent US4518611A, “2-Furylbutyrolactone modulation of the immune system in mammals” (priority 1983, dated 1985)
“And” between values parts separate entries of the source, which are not always exact repeats. Equal values may be shown once.

Test system: L-1210 leukemia cells
Assay: Treatment of L-1210 leukemia in BDF1 mice (T/C ratios)
Assay type: in vivo, mouse
Text: Mice of the BDF1 strain are given in i.p. inoculation of 10^6 L-1210 leukemia cells on day 0. Twenty-four hours later, groups of 7 mice each are started on a nine day treatment regimen of various doses of the compounds of this invention. The experiment is continued according to the guidelines provided under the National Cancer Institute protocol for screening new anti-cancer agents and T/C ratios (median or mean survival time of treated groups over median or mean survival time of controls) are calculated. A T/C value ≥1.25 (or 125%) is considered significant anticancer activity.
Mice of the BDF1 strain, inoculated with L-1210 leukemia cells, are treated for seven days with either 25, 50, 100, 200 or 400 mg/kg of Cpd. 1 or just buffer. The National Cancer Institute protocol for screening new anti-cancer agents is followed and T/C ratios are calculated.
Mice of the BDF1 strain, inoculated with L-1210 leukemia cells, are treated for seven days with either 100 mg/kg of Cpd. 1, 20 mg/kg of 5-flourouracil (5-FU), a known anti-cancer agent, or just buffer. The National Cancer Institute protocol for screening new anti-cancer agents is followed and T/C ratios are calculated.

Cc1ccc(C2(O)C(=O)OC3C(O)COC32O)o1.Cc1ccc(C2(O)C(=O)OC3C(O)COC32O)o1.O=C1CCC(=O)O1 (centres unmarked) [Cpd. 1, 2-furylbutyrolactone:succinic anhydride]
Median Survival Time (25 mg/kg, seven days): 20 days
T/C (25 mg/kg, seven days): 1.00
Median Survival Time (50 mg/kg, seven days): 21 days
T/C (50 mg/kg, seven days): 1.05
Median Survival Time (100 mg/kg, seven days): 30 days
T/C (100 mg/kg, seven days): 1.50 and 1.40
Median Survival Time (100 mg/kg, seven days (Table 25)): 28
Median Survival Time (200 mg/kg, seven days): 30 days
T/C (200 mg/kg, seven days): 1.50
Median Survival Time (400 mg/kg, seven days): 25 days
T/C (400 mg/kg, seven days): 1.25
